Experiments:
Assay in all cases: nuclear TFEB, TFE3 and cytosolic ZKSCAN3 localization – imaging, HeLa, EGFP fusions (AID 1224866)
[1] = system: HeLa TFEB-EGFP nuclear translocation, imaging; settings: stronger effect = higher value; dose or concentration not given here
[2] = target: Transcription factor E3 (Homo sapiens) (UniProt P19532); settings: HeLa; measured here: TFE3 nuclear translocation; stronger effect = higher value; dose or concentration not given here
[3] = target: Zinc finger protein with KRAB and SCAN domains 3 (Homo sapiens) (UniProt Q9BRR0); settings: HeLa EGFP-ZKSCAN3 cytoplasmic translocation; stronger effect = higher value; dose or concentration not given here

| SMILES | cells with nuclear TFEB-EGFP [1] [%] | cells with nuclear EGFP-TFE3 [2] [%] | cells with cytosolic EGFP-ZKSCAN3 [3] [%] |
| --- | --- | --- | --- |
| CCCCCCCCCCCCCCCC(=O)OCC1=C[C@H]2C(=O)[C@]3(C=C(C)[C@H](O)[C@@]3(O)[C@@H]1O)[C@H](C)C[C@@H]1[C@H]2C1(C)C | 66.6 | 5.1 | 74.3 |
| CC1=C[C@H]2C(=O)[C@]3(C=C(C)[C@H](O)[C@@]3(O)[C@@H]1OC(=O)c1ccccc1)[C@H](C)C[C@@H]1[C@H]2C1(C)C | 81.3 | 4.2 | 79.2 |
| CC=C(C)C(=O)O[C@@H]1C(C)=C[C@H]2C(=O)[C@]3(C=C(C)[C@H](OC(C)=O)[C@@]13O)[C@H](C)C[C@@H]1[C@H]2C1(C)C | 70.3 | 4.2 | 75 |
| CCCCCCCCCCCC(=O)O[C@@]12C[C@@H](C)[C@]34C=C(C)[C@H](OC(=O)C(C)C(C)C)[C@@]3(O)[C@H](O)C(CO)=C[C@@H](C4=O)[C@@H]1C2(C)C (stereo not given in full) | 66.1 | 4.3 | 69.7 |
| CC(=O)O[C@@H]1C(C)=C[C@H]2C(=O)[C@]3(C=C(C)[C@H](OC(=O)c4ccccc4)[C@@]13O)[C@H](C)C[C@@H]1[C@H]2C1(C)C | 74.5 | 4.6 | 74.1 |
| CC1=C[C@H]2C(=O)[C@]3(C=C(C)[C@H](OC(=O)c4ccccc4)[C@@]3(O)[C@@H]1O)[C@H](C)C[C@@H]1[C@H]2C1(C)C | 65.8 | 4 | 68.4 |
| CCCCCCCCCCCCCC(=O)OCC1=C[C@H]2C(=O)[C@]3(C=C(C)[C@H](O)[C@@]3(O)[C@@H]1O)[C@H](C)C[C@@H]1[C@H]2C1(C)C | 67.2 | 4.8 | 76.4 |
| CCCCCCCCCCCC(=O)O[C@@]12C[C@@H](C)[C@]34C=C(C)[C@H](O)[C@@]3(O)[C@H](O)C(COC(=O)C(C)C(C)C)=C[C@@H](C4=O)[C@@H]1C2(C)C (stereo not given in full) | 62 | 3.9 | 67.4 |
| CC=C(C)C(=O)O[C@@H]1C(C)=C[C@H]2C(=O)[C@]3(C=C(C)[C@H](O)[C@@]13O)[C@H](C)C[C@@H]1[C@H]2C1(C)C | 85.6 | 5.2 | 83.6 |
| CC=C(C)C(=O)O[C@H]1C(C)=C[C@]23C(=O)[C@H](C=C(C)[C@@H](O)[C@]12O)[C@H]1[C@@H](C[C@H]3C)C1(C)C | 80.8 | 5.4 | 76.9 |
